Laboratory results reported in US12419887B2, “Transitioning patients treated for pulmonary arterial hypertension to selexipag” (ACTELION PHARMACEUTICALS LTD, priority 2019, dated 2025).

Assays:
Type in all cases: in vivo, human
[1] = test system: patients being treated for pulmonary arterial hypertension transitioned from a non-selexipag PPA; experiment: Change in WHO/NYHA functional class (FC) from baseline after transition to selexipag; conditions: for patients with worsened FC / patients with improved FC: all transitioned patients
Text: (§1) In this example, the effectiveness of transitioning patients from a non-selexipag PPA to selexipag was investigated. Patients were followed for up to 18 months and data were collected at the time of initiation, enrollment, and approximately quarterly post-enrollment. Eligible patients were aged ≥18 years and either newly initiated on selexipag at the time of enrollment or were already receiving selexipag and have a documented titration regimen.
(§2) “Transitioned patients” were defined as patients who were (i) taking a non-selexipag PPA for ≥30 days at the time of selexipag initiation who stopped the initial agent ≤7 days before selexipag initiation; or (ii) continued taking the initial, non-selexipag PPA when they initiated selexipag and gradually transitioned off that agent.
(§3) Assessments performed closest to selexipag initiation were considered to be “baseline.” Data at 6 and 12 months post-baseline were as follows (i) the window for the 6-month measurements was >0 months and <9 months; (ii) the window for the 12-month measurements was ≥9 months and <16 months; and (iii) the assessment closest to the 6- or 12-month time point, respectively, was used.

[2] = test system: patients being treated for pulmonary arterial hypertension; experiment: Safety: selexipag discontinuation and adverse events leading to discontinuation
Text: as §1
AEs known to be associated with the selexipag mechanism of action were only reported if they were serious, led to selexipag discontinuation, or reflected an unusual pattern of severity.
Safety data were collected only for the period during which patients were enrolled. The median total duration of selexipag treatment on study was 13.7 months (IQR: 9.1-17.8 months) for all patients: 13.8 months (IQR: 9.2-17.8 months) for patients in the inhaled/oral group and 13.4 months (IQR: 6.8-15.9 months) for patients in the parenteral group.

[3] = test system: patients being treated for pulmonary arterial hypertension transitioned from a non-selexipag PPA; experiment: Change from baseline in 6-minute walk distance (6MWD) after transition to selexipag
Text: as §1, §2, §3

[4] = test system: patients being treated for pulmonary arterial hypertension transitioned from a non-selexipag PPA; experiment: Change from baseline in assessed risk category after transition to selexipag
Text: as §3
Risk categories were assigned. Seven variables were used: World Health Organization or New York Heart Association functional class (FC), 6-minute walk distance (6MWD), N-terminal prohormone of brain natriuretic peptide (NT-proBNP), brain natriuretic peptide (BNP), and hemodynamic parameters, including right atrial pressure, cardiac index, and mixed venous oxygen saturation. If both NT-proBNP and BNP were available, the risk classification of each value was averaged together and the mean was used in the risk categorization. Thresholds from the 2015 European Society of Cardiology/European Respiratory Society Guidelines were applied to assign a risk score for each available variable: 1=low risk, 2=intermediate risk, and 3=high risk. The risk score from all available variables was then averaged. The resulting number was rounded to the nearest integer to produce the patient's individual risk category: 1=low risk, 2=intermediate risk, and 3=high risk

[5] = transitioned from parenteral non-selexipag PPA, 6 months
[6] = transitioned from oral/inhaled non-selexipag PPA, 6 months
[7] = transitioned from oral/inhaled non-selexipag PPA, 12 months
[8] = transitioned from parenteral non-selexipag PPA, 12 months

CC(C)N(CCCCOCC(=O)NS(C)(=O)=O)c1cnc(-c2ccccc2)c(-c2ccccc2)n1 [selexipag, 2-{4-[(5,6-diphenylpyrazin-2-yl)(propan-2-yl)amino]butoxy}-N-(methanesulfonyl)acetamide]
disease course in the majority of patients as indicated by FC, 6MWD, and risk status ([1]; 12 months after transitioning, regardless of type of prior non-selexipag PPA): unchanged or improved disease
patients with worsened FC ([1]; 6 months vs baseline): none
patients with improved FC ([1]; 6 months vs baseline, data for 46% of patients): 27%
patients with worsened FC ([1]; 12 months vs baseline): 10%
patients with improved FC ([1]; 12 months vs baseline, data for 70% of patients): 21%
FC versus baseline ([1]; transitioned patients, at 6 and 12 months): maintained in the majority of transitioned patients
AE leading to selexipag discontinuation: Acute respiratory failure, % ([2]; All Patients (N = 56)): (1.8) %
AE leading to selexipag discontinuation: Arthralgia, % ([2]; All Patients (N = 56)): (1.8) %
AE leading to selexipag discontinuation: Cardiac arrest, % ([2]; All Patients (N = 56)): (1.8) %
AE leading to selexipag discontinuation: Cardiac disorders, % ([2]; All Patients (N = 56)): (7.1) %
AE leading to selexipag discontinuation: Cardiac failure congestive, % ([2]; All Patients (N = 56)): (1.8) %
AE leading to selexipag discontinuation: Fluid overload, % ([2]; All Patients (N = 56)): (1.8) %
AE leading to selexipag discontinuation: Headache, % ([2]; All Patients (N = 56)): (1.8) %
AE leading to selexipag discontinuation: Investigations, % (Right ventricular systolic pressure) ([2]; All Patients (N = 56)): (1.8) %
AE leading to selexipag discontinuation: Investigations, n (Right ventricular systolic pressure) ([2]; All Patients (N = 56)): 1 n
AE leading to selexipag discontinuation: Musculoskeletal and connective tissue disorders, % ([2]; All Patients (N = 56)): (1.8) %
AE leading to selexipag discontinuation: Nervous system disorders, % ([2]; All Patients (N = 56)): (1.8) %
AE leading to selexipag discontinuation: Respiratory failure, % ([2]; All Patients (N = 56)): (1.8) %
AE leading to selexipag discontinuation: Respiratory, thoracic and mediastinal disorders, % ([2]; All Patients (N = 56)): (8.9) %
AE leading to selexipag discontinuation: Right ventricular failure, % ([2]; All Patients (N = 56)): (1.8) %
AE leading to selexipag discontinuation: Right ventricular systolic pressure increased, % ([2]; All Patients (N = 56)): (1.8) %
AE leading to selexipag discontinuation: Worsening pulmonary hypertension, % ([2]; All Patients (N = 56)): (5.4) %
AE leading to selexipag discontinuation: Acute respiratory failure, % ([2]; Inhaled/Oral (n = 36)): 2.8%
AE leading to selexipag discontinuation: Arthralgia, % ([2]; Inhaled/Oral (n = 36)): 2.8%
AE leading to selexipag discontinuation: Cardiac arrest, % ([2]; Inhaled/Oral (n = 36)): 2.8%
AE leading to selexipag discontinuation: Cardiac disorders, % ([2]; Inhaled/Oral (n = 36)): 5.6%
AE leading to selexipag discontinuation: Cardiac failure congestive, % ([2]; Inhaled/Oral (n = 36)): 2.8%
AE leading to selexipag discontinuation: Headache, % ([2]; Inhaled/Oral (n = 36)): 2.8%
AE leading to selexipag discontinuation: Investigations, n (Right ventricular systolic pressure) ([2]; Inhaled/Oral (n = 36)): 0 n
AE leading to selexipag discontinuation: Musculoskeletal and connective tissue disorders, % ([2]; Inhaled/Oral (n = 36)): 2.8%
AE leading to selexipag discontinuation: Nervous system disorders, % ([2]; Inhaled/Oral (n = 36)): 2.8%
AE leading to selexipag discontinuation: Patients with at least one AE, % ([2]; Inhaled/Oral (n = 36)): 16.7%
AE leading to selexipag discontinuation: Respiratory failure, % ([2]; Inhaled/Oral (n = 36)): 2.8%
AE leading to selexipag discontinuation: Respiratory, thoracic and mediastinal disorders, % ([2]; Inhaled/Oral (n = 36)): 5.6%
AE leading to selexipag discontinuation: Cardiac disorders, % ([2]; Parenteral (n = 20)): (10.0) %
AE leading to selexipag discontinuation: Fluid overload, % ([2]; Parenteral (n = 20)): (5.0) %
AE leading to selexipag discontinuation: Investigations, % (Right ventricular systolic pressure) ([2]; Parenteral (n = 20)): (5.0) %
AE leading to selexipag discontinuation: Investigations, n (Right ventricular systolic pressure) ([2]; Parenteral (n = 20)): 1 n
AE leading to selexipag discontinuation: Respiratory, thoracic and mediastinal disorders, % ([2]; Parenteral (n = 20)): (15.0) %
AE leading to selexipag discontinuation: Right ventricular failure, % ([2]; Parenteral (n = 20)): (5.0) %
AE leading to selexipag discontinuation: Right ventricular systolic pressure increased, % ([2]; Parenteral (n = 20)): (5.0) %
AE leading to selexipag discontinuation: Worsening pulmonary hypertension, % ([2]; Parenteral (n = 20)): (15.0) %
patients who discontinued selexipag ([2]; non-transitioned patients (65 of 194)): 33.5%
patients who discontinued selexipag ([2]; transitioned patients (16 of 56)): 28.6%
6MWD versus baseline ([3]; all patients, 12 months): modest increase in 6MWD
6MWD versus baseline ([3]; transitioned from oral/inhaled PPA, 6 months): increased 6MWD
median 6MWD versus baseline [3, 5]: decreased median 6MWD from baseline
patients with improved risk status [4, 6]: 21%
patients with maintained risk status [4, 6]: 63%
patients with worsened risk status [4, 6]: 17%
patients with improved FC (in the risk status paragraph) [4, 7]: 24%
patients with maintained risk status [4, 7]: 61%
patients with worsened FC (in the risk status paragraph) [4, 7]: 15%
patients with improved risk status [4, 5]: 27%
patients with maintained or improved risk status [4, 5]: 67%
patients with maintained risk status [4, 5]: 40%
patients with worsened risk status [4, 5]: 33%
patients with improved risk status [4, 8]: 29%
patients with maintained or improved risk status [4, 8]: 86%
patients with maintained risk status [4, 8]: 57%
patients with worsened risk status [4, 8]: 14%
